Laboratory results from paper PMC8179049 (Chemical Science, 2020).
“And” between values parts separate entries of the source, which are not always exact repeats. Equal entries are not always repeated. Where two headings read alike, the source gives them in different places.

How the values were obtained:
[1] = target: T1, human AspH (His6-AspH315-758) (Homo sapiens, UniProt Q12797); assay: SPE-MS AspH inhibition assay; format: biochemical; details: mean ± SD, n = 3
T1 construct: N-Terminally His6-tagged human AspH315-758 (His6-AspH315-758) was produced in Escherichia coli BL21 (DE3); made in house; host or cells: Escherichia coli BL21 (DE3), pET-28a(+) vector
T1 sequence (Q12797 315-758): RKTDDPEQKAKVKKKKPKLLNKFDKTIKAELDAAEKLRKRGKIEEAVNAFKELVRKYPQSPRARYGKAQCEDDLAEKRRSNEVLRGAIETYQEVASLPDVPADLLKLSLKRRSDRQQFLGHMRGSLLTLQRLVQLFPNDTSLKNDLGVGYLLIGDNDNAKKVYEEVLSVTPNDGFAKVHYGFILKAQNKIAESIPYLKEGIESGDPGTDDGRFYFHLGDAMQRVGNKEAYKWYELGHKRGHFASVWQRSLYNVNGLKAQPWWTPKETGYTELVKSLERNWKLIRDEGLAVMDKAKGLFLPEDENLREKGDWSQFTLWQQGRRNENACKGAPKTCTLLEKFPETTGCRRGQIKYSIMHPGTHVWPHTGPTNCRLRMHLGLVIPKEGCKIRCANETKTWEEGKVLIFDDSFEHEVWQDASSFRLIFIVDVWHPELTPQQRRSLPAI
Protocol: 6. Recombinant AspH production and purification
N-Terminally His6-tagged human AspH315-758 (His6-AspH315-758) was produced in Escherichia coli BL21 (DE3) cells using a pET-28a(+) vector and purified by Ni(II)-affinity chromatography (HisTrap HP column, GE Healthcare; 1 mL/min flow rate) and size-exclusion chromatography (HiLoad 26/60 Superdex 75 pg 300 mL column; 1 mL/min) using an ÄKTA pure machine (GE Healthcare) as previously reported.1,4 AspH was >95% pure by SDS-PAGE and MS analysis and had the anticipated mass (calculated for His6-AspH315-758: 54519 Da, found: 54519 Da).1 Purified AspH was stored in 50 mM HEPES buffer (pH 7.5, 150 mM NaCl) at a concentration of 125 μM at -78 °C; fresh aliquots were used for all AspH assays.
7. AspH substrate synthesis
AspH substrates were designed based on the sequence of EGFD1 of human coagulation factor X (hFX amino acids 86-124), which is a reported cellular AspH substrate.2 All substrates were prepared with a C-terminal amide.
The hFX-EGFD186-124-4Ser peptide (hFX amino acids 86-124; Supporting Figure S1c),1 used for crystallography experiments, was synthesized by solid phase peptide synthesis (SPPS) and purified by GL Biochem (Shanghai) Ltd (Shanghai, China). The thioether linked cyclic peptide hFX-CP101-119 (hFX amino acids 101-119; Supporting
Figure S1d), which was used as substrate in AspH SPE-MS assays,4 was synthesized by an intramolecular thioetherification cyclization reaction from the corresponding linear peptide (D-Ala replacing Cys101hFX and Ser replacing Cys112hFX) which was obtained by microwave-assisted solid phase peptide synthesis using the Fmoc-protection strategy as described.4
8. AspH inhibition assays […]
water; ammonium iron(II) sulfate hexahydrate, FAS, (NH 4)2Fe(SO4)2·6H2O: 400 mM in 20 mM HCl diluted to 1 mM in Milli-Q® Ultrapure water) were freshly prepared each day from commercially sourced solids (Sigma […]
(Greiner) in an approximately three-fold and 11-point dilution series (100 μM top concentration) using an ECHO 550 acoustic dispenser (Labcyte). DMSO and 2,4 -PDCA were used as negative and positive controls , respectively .
The final DMSO concentration was kept constant at 0.5%v/v throughout all experiments (using the DMSO backfill option of the acoustic dispenser). Each reaction was performed in technical duplicates in adjacent wells of the assay plates; additionally, assays were performed in three independent technical duplicates on different days using different DMSO inhibitor solutions. […]
dispensed across the inhibitor-containing 384-well assay plates with a multidrop dispenser (ThermoFischer Scientific) at 20°C under an ambient atmosphere. The plates were subsequently centrifuged (1000 rpm, 30 s) and incubated for 15 minutes at 20°C. The Substrate Mixture (25 μL/well), containing 2.0 μM hFX-CP101-119, 200 μM […]
Note: The multidrop dispenser ensured proper mixing of the Enzyme and the Substrate Mixtures which was essential for assay reproducibility. The plates were centrifuged (1000 rpm, 30 s) and af ter incubating for 7 minutes, […]
centrifuged (1000 rpm, 60 s) and analysed by MS.
The mass spectrometer parameters were:
Data were exported into Microsoft
The standard deviation (SD) of three
Z’-factors were calculated
9. Determination of kinetic parameters […]
in 50 mM HEPES buffer (pH 7.5).

human AspH = target: T2, human AspH (Homo sapiens, UniProt Q12797); assay: SPE-MS AspH turnover assay in the absence of 2OG (2OG derivative as cosubstrate); details: 330 μM 2OG or 2OG derivative, 0.1 μM AspH, 2 μM hFX-CP101-119, 50 μM FAS, t = 15 min;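 note: percent conversion = hydroxylated cyclic peptide peak area relative to summed substrate plus product areas, taken from +2 charge state ion chromatograms by solid phase extraction MS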
T2 sequence (Q12797 315-758): T1 sequence (Q12797 315-758)
Protocol: AspH assays were performed as described in the ESI, ^† data are shown as the mean of three independent runs (n = 3; mean ± standard deviation, SD).
AspH assays were performed as described in Section 9 of the Supporting Information using 0.1 μM AspH, 2 μM
a positive control in the SPE-MS AspH turnover assays (Entry 1).
dependent conversion of the AspH substrate hFX-CP101-119 (Supporting Figure S1d). %-Substrate conversion is
AspH assays were performed as
described in Section 9 of the Supporting Information using 0.1 μM AspH, 2 μM hFX-CP101-119, 50 μM FAS, 330
AspH inhibition assays were incubated for 6 rather than 7 minutes before the enzyme reaction was
stopped by the addition of 10%v/v aqueous formic acid.
MS-analyses were performed using a RapidFire RF 365 high-throughput sampling robot (Agilent) attached to an
iFunnel Agilent 6550 accurate mass quadrupole time-of-flight (Q-TOF) mass spectrometer operated in the positive
ionization mode. Assay samples were aspirated under vacuum for 0.4 s and loaded onto a C4 solid phase extraction (SPE) cartridge. After loading, the C4 SPE cartridge was washed with 0.1%v/v aqueous formic acid to remove
non-volatile buffer salts (5 s, 1.5 mL/min). The peptide was eluted from the SPE cartridge with 0.1%v/v aqueous
formic acid in 85/15v/v acetonitrile/water into the mass spectrometer (5 s, 1.25 mL/min) and the SPE cartridge re-
equilibrated with 0.1%v/v aqueous formic acid (1 s, 1.25 mL/min). The mass spectrometer parameters were:
capillary voltage (4000 V), nozzle voltage (1000 V), fragmentor voltage (365 V), gas temperature (280°C), gas
flow (13 L/min), sheath gas temperature (350°C), sheath gas flow (12 L/min). The m/z +2 charge states of the
cyclic peptide (substrate) and the hydroxylated cyclic peptide (product) were used to extract ion chromatogram
data, peak areas were integrated using RapidFire Integrator software (Agilent). Data were exported into Microsoft
Excel and used to calculate the % conversion of the hydroxylation reaction using the equation: % conversion =
100 x (integral product cyclic peptide) / (integral substrate cyclic peptide + integral product cyclic peptide).
Normalized dose-response curves (2,4-PDCA and DMSO controls) were obtained from the raw data by non-linear
regression (GraphPad Prism 5) and used to determine IC50-values. The standard deviation (SD) of three
independent IC50 determinations (n = 3) was calculated using GraphPad Prism 5. Z’-factors were calculated
according to the cited literature using Microsoft Excel (Supporting Figure S3).14

[2] = 50 nM His6-AspH315–758, 1.0 μM hFX-CP101–119, 3 μM 2OG, read-out: IC50 (inhibition of AspH)
[3] = 50 nM His6-AspH315–758, 1.0 μM hFX-CP101–119, 3 μM 2OG
[4] = 50 nM His6-AspH315-758, 1.0 μM hFX-CP101-119, read-out: IC50 (ESI Fig. S4)
[5] = IC50 at 200 μM 2OG (ESI Table S1), assay concentration of 200 μM 2OG
[6] = IC50 at 400 μM 2OG (ESI Table S1), assay concentration of 400 μM 2OG
[7] = IC50 at 600 μM 2OG (ESI Table S1), assay concentration of 600 μM (0.6 mM) 2OG

SMILES	IC50 [1, 2]	AspH-catalyzed substrate conversion (hydroxylation of hFX-CP101-119) (human AspH)	melting point	IC50 (inhibition of AspH) [1, 3]	also measured
O=C(O)C(=O)c1ccc(C(=O)O)cc1Br [compound 44]		~20%	> 300 °C (dec.)	Inactive	
Cc1cc(C)cc(CC(CC(=O)O)C(=O)C(=O)O)c1 (centres unmarked) [compound 25]	4.7 ± 0.2 µM	< 1%			
Cc1cc(C(=O)O)ccc1C(=O)C(=O)O [compound 46]		~5%	> 320 °C (dec.)	Inactive	
O=C(O)CNC(=O)C(=O)O [NOG, N-oxalylglycine, reference compound]	~1 µM				IC50 [1, 4]: 0.99 ± 0.31 µM
O=C(O)C(=O)c1ccc(C(=O)O)cc1F [compound 42]		~45%	> 310 °C (dec.)	Inactive	
O=C(O)C(=O)C12CCC(C(=O)O)(CC1)CC2 [compound 47]		~8%	> 300 °C (dec.)	did not inhibit	IC50 (inhibition of AspH) ([1]; 50 nM His6-AspH315–758, 1.0 μM hFX-CP101–119, 3 μM 2OG, listed as C00030): Inactive
O=C(O)C(=O)c1cscc1C(=O)O [compound 37]		< 1%		did not inhibit	IC50 (inhibition of AspH) ([1]; 50 nM His6-AspH315–758, 1.0 μM hFX-CP101–119, 3 μM 2OG, listed as C00032): Inactive
O=C(O)C(=O)c1ccc(C(=O)O)c(Br)c1 [compound 45]		~8%		Inactive	
O=C(O)CC(Cc1ccc(OC(F)(F)F)cc1)C(=O)C(=O)O (centres unmarked) [compound 23]	6.3 ± 2.6 µM	< 1%	> 260 °C (dec.)		
CCCC(CC(=O)O)C(=O)C(=O)O (centres unmarked) [compound 18]	~5.7 µM and 5.7 µM	< 1%			
CC1(C)C(C(=O)O)C1C(=O)C(=O)O (centres unmarked) [compound 35]	~5.2 µM and 5.2 µM	< 1%			
CCC(CC(=O)O)C(=O)C(=O)O (centres unmarked) [compound 17, 3-ethyl-2OG]	~1.2 µM and 1.2 µM	< 1%			IC50 [1, 5]: 22.4 ± 3.2 µM; IC50 [1, 6]: 35.3 ± 9.9 µM; IC50 [1, 7]: 54.9 ± 10.8 µM
O=C(O)C(=O)c1ccc(C(=O)O)s1 [compound 38]	~12.9 µM and 12.9 µM	~15%	> 285 °C (dec.)		
O=C(O)C(=O)[C@@H]1[C@@H](C(=O)O)[C@@H]2C=C[C@H]1C2 (racemic) [compound 36]	~19.3 µM and 19.3 µM	< 1%			
CC(C)(NC(=O)C(=O)O)C(=O)O [compound 49, N-oxalyl-α-methylalanine]	~2.9 µM				IC50 [1, 4]: 2.9 ± 1.3 µM
CC(C)(C)CCC(CC(=O)O)C(=O)C(=O)O (centres unmarked) [compound 19]	~48.2 µM and 48.2 µM	< 1%			
O=C(O)C(=O)C1(C(=O)O)CC1 [compound 48]	~3.3 µM and 3.3 µM	< 1%			

Now from value to compound, other results behind:

IC50 [1, 2]	AspH-catalyzed substrate conversion (hydroxylation of hFX-CP101-119) (human AspH)	melting point	IC50 (inhibition of AspH) [1, 3]	SMILES	also measured
0.61 ± 0.09 µM	< 1%			CCC(CC(=O)C(=O)O)C(=O)O (centres unmarked) [compound 27]	
2.6 ± 0.8 µM	< 1%	> 250 °C (dec.)		O=C(O)CC(Cc1ccc(F)cc1)C(=O)C(=O)O (centres unmarked) [compound 22]	
~6.8 µM and 6.8 µM	< 1%	> 220 °C (dec.)		O=C(O)CC(CCCc1ccccc1)C(=O)C(=O)O (centres unmarked) [compound 20]	
0.7 ± 0.11 µM	< 1%			CC(C)(C)CCC(CC(=O)C(=O)O)C(=O)O (centres unmarked) [compound 30]	
	< 1%		did not inhibit	O=C(O)C(=O)c1ccccc1C(=O)O [compound 39]	IC50 (inhibition of AspH) ([1]; 50 nM His6-AspH315–758, 1.0 μM hFX-CP101–119, 3 μM 2OG, listed as C00006): Inactive
	< 1%		did not inhibit	O=C(O)C(=O)c1cccc(C(=O)O)c1 [compound 40, 3-carboxyphenylglyoxylic acid]	IC50 (inhibition of AspH) ([1]; 50 nM His6-AspH315–758, 1.0 μM hFX-CP101–119, 3 μM 2OG, listed as C00009): Inactive
0.51 ± 0.12 µM	< 1%			CC(C)CC(CC(=O)C(=O)O)C(=O)O (centres unmarked) [compound 29]	IC50 [1, 5]: 10.8 ± 2.7 µM; IC50 [1, 6]: 16.8 ± 2.5 µM; IC50 [1, 7]: 26.9 ± 7 µM
0.47 ± 0.08 µM	< 1%			CCCC(CC(=O)C(=O)O)C(=O)O (centres unmarked) [compound 28]	
	~10%		did not inhibit	CC(CC(=O)C(=O)O)C(=O)O (centres unmarked) [compound 26, 4-methyl-2OG]	IC50 (inhibition of AspH) ([1]; 50 nM His6-AspH315–758, 1.0 μM hFX-CP101–119, 3 μM 2OG, listed as C00031): Inactive
3.6 ± 1.4 µM	< 1%	> 260 °C (dec.)		COc1ccc(CC(CC(=O)O)C(=O)C(=O)O)cc1 (centres unmarked) [compound 24]	
0.25 ± 0.05 µM	< 1%	> 220 °C (dec.)		O=C(O)C(=O)CC(CCCc1ccccc1)C(=O)O (centres unmarked) [compound 31]	
0.17 ± 0.03 µM	< 1%	> 220 °C (dec.)		O=C(O)C(=O)CC(Cc1ccc2ccccc2c1)C(=O)O (centres unmarked) [compound 33]	IC50 [1, 5]: 2.5 ± 0.4 µM; IC50 [1, 6]: 3.1 ± 0.3 µM; IC50 [1, 7]: 5.6 µM and ~5.6 µM
~1.6 µM and 1.6 µM	< 1%	> 250 °C (dec.)		O=C(O)CC(Cc1ccccc1)C(=O)C(=O)O (centres unmarked) [compound 21]	
